Reference: ChEMBL document CHEMBL1123386, “Substituted-vinyl hydroxytriarylethylenes, 1-[4-[2-(diethylamino) ethoxy]phenyl]-1-(4-hydroxyphenyl)-2-phenylethylenes: synthesis and effects on MCF 7 breast cancer cell proliferation” (J Med Chem, 1986)

The compounds below were run on MCF7 (assay: Compound was tested for binding affinity against nuclear ER in MCF-7 cell extracts).
Format: functional, cell-based, Homo sapiens

Compound | Kd
CCN(CC)CCOc1ccc(/C(=C(/Cl)c2ccccc2)c2ccc(O)cc2)cc1 [4-OH-ENCLOMIPHENE] | 0.11 nM
CCN(CC)CCOc1ccc(/C(=C\c2ccccc2)c2ccc(O)cc2)cc1 | 1.11 nM
CCN(CC)CCOc1ccc(/C(=C(/Br)c2ccccc2)c2ccc(O)cc2)cc1 | 0.36 nM
CCN(CC)CCOc1ccc(/C(=C(/C#N)c2ccccc2)c2ccc(O)cc2)cc1 | 1.11 nM
CC/C(=C(\c1ccc(O)cc1)c1ccc(OCCN(CC)CC)cc1)c1ccccc1 | 0.29 nM
CCN(CC)CCOc1ccc(/C(=C(\c2ccccc2)[N+](=O)[O-])c2ccc(O)cc2)cc1 | 0.56 nM
